Experimental data reported in PubChem BioAssay (NCI).
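Compound exposure: 48 hours, 5 concentrations, 96-well plates. Abbreviation: GI50, concentration required for 50% inhibition of growth. The concentration for full growth arrest is given as TGI.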

How the values were obtained:
Test in all cases: growth of human tumour cells (NCI), 48 h; in the data active = GI50 below about 0.43 µM; inactive = the rest
[1] = tested on: MCF7 breast
[2] = tested on: UACC-62 melanoma
[3] = tested on: OVCAR-3 ovarian
[4] = tested on: A498 renal
[5] = tested on: COLO 205 colon
[6] = tested on: CAKI-1 renal
[7] = tested on: NCI-H226 lung
[8] = tested on: SR leukemia
[9] = tested on: SNB-19 CNS
[10] = tested on: SK-MEL-28 melanoma
[11] = tested on: MALME-3M melanoma
[12] = tested on: NCI-H522 lung
[13] = tested on: PC-3 prostate
[14] = tested on: HT29 colon
[15] = tested on: UO-31 renal
[16] = tested on: SN12C renal
[17] = tested on: SNB-75 CNS
[18] = tested on: OVCAR-4 ovarian
[19] = tested on: ACHN renal
[20] = tested on: UACC-257 melanoma
[21] = tested on: HCT-15 colon
[22] = tested on: EKVX NSCLC
[23] = tested on: RPMI-8226 leukemia
[24] = tested on: SK-OV-3 ovarian
[25] = tested on: T-47D breast
[26] = tested on: HL-60(TB) leukemia
[27] = tested on: RXF 393 renal
[28] = tested on: KM12 colon
[29] = tested on: U251 CNS
[30] = tested on: LOX IMVI melanoma
[31] = tested on: SW-620 colon
[32] = tested on: OVCAR-5 ovarian
[33] = tested on: K-562 leukemia
[34] = tested on: NCI-H460 lung
[35] = tested on: DU-145 prostate
[36] = tested on: MDA-MB-231 breast
[37] = tested on: OVCAR-8 ovarian
[38] = tested on: 786-0 renal
[39] = tested on: MOLT-4 leukemia
[40] = tested on: HCT-116 colon
[41] = tested on: SK-MEL-5 melanoma
[42] = tested on: SF-295 CNS
[43] = tested on: SF-268 CNS
[44] = tested on: HCC-2998 colon
[45] = tested on: A549 NSCLC
[46] = tested on: M14 melanoma
[47] = tested on: HOP-92 NSCLC
[48] = tested on: SK-MEL-2 melanoma
[49] = tested on: HOP-62 NSCLC
[50] = tested on: SF-539 CNS
[51] = tested on: BT-549 breast
[52] = tested on: MDA-MB-435
[53] = tested on: HS 578T breast
[54] = tested on: NCI-H23 lung
[55] = tested on: IGROV1 ovarian
[56] = tested on: TK-10 renal
[57] = tested on: CCRF-CEM leukemia
[58] = tested on: NCI/ADR-RES ovarian

CCOCCOC[C@H]1CCCN(c2ccnc3sc(C(N)=O)c(N)c23)C1
inactive: GI50 [1] 25.1 µM | GI50 [2] 6.51 µM | GI50 [3] 23.6 µM | GI50 [4] > 100 µM | GI50 [5] 59.7 µM | GI50 [6] 30.5 µM | GI50 [7] > 100 µM | GI50 [8] 11 µM | GI50 [9] > 100 µM | GI50 [10] 23.5 µM | GI50 [11] 86.6 µM | GI50 [12] 10.3 µM | GI50 [13] 21.7 µM | GI50 [14] > 100 µM | GI50 [15] 15.3 µM | GI50 [16] 29.8 µM | GI50 [17] 63.9 µM | GI50 [18] 13.5 µM | GI50 [19] 9.95 µM | GI50 [20] 12.4 µM | GI50 [21] > 100 µM | GI50 [22] 27.9 µM | GI50 [23] 1.65 µM | GI50 [24] 40.3 µM | GI50 [25] 3.9 µM | GI50 [26] 48.7 µM | GI50 [27] 47.8 µM | GI50 [28] 36.6 µM | GI50 [29] > 100 µM | GI50 [30] 29.3 µM | GI50 [31] > 100 µM | GI50 [32] > 100 µM | GI50 [33] 8.44 µM | GI50 [34] > 100 µM | GI50 [35] 73.1 µM | GI50 [36] 58.7 µM | GI50 [37] 25.1 µM | GI50 [38] > 100 µM | GI50 [39] 10.1 µM | GI50 [40] 14.4 µM | GI50 [41] 4.05 µM | GI50 [42] 10.4 µM | GI50 [43] 56.4 µM | GI50 [44] > 100 µM | GI50 [45] 77.4 µM | GI50 [46] 63.1 µM | GI50 [47] 44.3 µM | GI50 [48] 11.1 µM | GI50 [49] > 100 µM | GI50 [50] > 100 µM | GI50 [51] 9.35 µM | GI50 [52] 29.8 µM | GI50 [53] 44.1 µM | GI50 [54] 10.6 µM | GI50 [55] 35 µM | GI50 [56] > 100 µM
36.9 µM: TGI [41]
> 100 µM: TGI [1] | TGI [2] | TGI [3] | TGI [4] | TGI [5] | TGI [6] | TGI [7] | TGI [8] | TGI [9] | TGI [10] | TGI [11] | TGI [12] | TGI [13] | TGI [14] | TGI [15] | TGI [16] | TGI [17] | TGI [18] | TGI [19] | TGI [20] | TGI [21] | TGI [22] | TGI [23] | TGI [24] | TGI [25] | TGI [26] | TGI [27] | TGI [28] | TGI [29] | TGI [30] | TGI [31] | TGI [32] | TGI [33] | TGI [34] | TGI [35] | TGI [36] | TGI [37] | TGI [38] | TGI [39] | TGI [40] | TGI [42] | TGI [43] | TGI [44] | TGI [45] | TGI [46] | TGI [47] | TGI [48] | TGI [49] | TGI [50] | TGI [51] | TGI [52] | TGI [53] | TGI [54] | TGI [55] | TGI [56]

CN1CCN(CC(=O)N2c3cccc4cccc(c34)N(C(=O)CN3CCN(C)CC3)C2c2cn(-c3ccccc3)nc2-c2cccc([N+](=O)[O-])c2)CC1
4.37 µM: TGI [31]
14.3 µM: TGI [58]
3.49 µM: TGI [11]
3.22 µM: TGI [30]
2.71 µM: TGI [17]
3.36 µM: TGI [10]
11.5 µM: TGI [22]
3.19 µM: TGI [50]
5.45 µM: TGI [54]
3.73 µM: TGI [42]
5.79 µM: TGI [37]
4.13 µM: TGI [12]
4.8 µM: TGI [7]
4.45 µM: TGI [57]
3.09 µM: TGI [27]
3.71 µM: TGI [55]
3.26 µM: TGI [51]
3.43 µM: TGI [28]
4.1 µM: TGI [6]
3.82 µM: TGI [5]
5.61 µM: TGI [56]
5.24 µM: TGI [18]
4.95 µM: TGI [43]
2.75 µM: TGI [15]
3.11 µM: TGI [41]
4.98 µM: TGI [34]
3.4 µM: TGI [3]
5.94 µM: TGI [39]
3.75 µM: TGI [26]
4 µM: TGI [29]
3.34 µM: TGI [46]
4.28 µM: TGI [16]
3.93 µM: TGI [52]
4.06 µM: TGI [21]
3.21 µM: TGI [38]
3.95 µM: TGI [4]
4.33 µM: TGI [23]
4.34 µM: TGI [25]
10.4 µM: TGI [13] | TGI [35]
3.39 µM: TGI [1]
5.59 µM: TGI [14]
5.71 µM: TGI [53]
13.2 µM: TGI [45]
5.52 µM: TGI [49]
3.18 µM: TGI [47]
7.53 µM: TGI [32]
3.01 µM: TGI [44]
5.33 µM: TGI [19]
3.81 µM: TGI [33]
inactive: GI50 [1] 1.75 µM | GI50 [2] 1.77 µM | GI50 [3] 1.76 µM | GI50 [4] 1.92 µM | GI50 [5] 1.84 µM | GI50 [6] 1.83 µM | GI50 [7] 1.83 µM | GI50 [9] 2.96 µM | GI50 [10] 1.81 µM | GI50 [11] 1.85 µM | GI50 [12] 1.92 µM | GI50 [13] 2.8 µM | GI50 [14] 2.19 µM | GI50 [15] 1.32 µM | GI50 [16] 1.99 µM | GI50 [17] 1.32 µM | GI50 [18] 2.25 µM | GI50 [19] 2.22 µM | GI50 [20] 1.86 µM | GI50 [21] 1.98 µM | GI50 [22] 2.84 µM | GI50 [23] 1.76 µM | GI50 [24] 2.11 µM | GI50 [25] 1.97 µM | GI50 [26] 1.89 µM | GI50 [27] 1.58 µM | GI50 [28] 1.85 µM | GI50 [29] 1.9 µM | GI50 [30] 1.74 µM | GI50 [31] 1.91 µM | GI50 [57] 1.69 µM | GI50 [32] 2.46 µM | GI50 [33] 1.22 µM | GI50 [34] 2.23 µM | GI50 [35] 3.27 µM | GI50 [36] 1.84 µM | GI50 [37] 2.35 µM | GI50 [38] 1.76 µM | GI50 [39] 2.21 µM | GI50 [40] 1.65 µM | GI50 [41] 1.7 µM | GI50 [42] 1.9 µM | GI50 [43] 1.95 µM | GI50 [44] 1.54 µM | GI50 [45] 3.21 µM | GI50 [46] 1.75 µM | GI50 [47] 1.13 µM | GI50 [58] 3.68 µM | GI50 [48] 1.95 µM | GI50 [49] 2.02 µM | GI50 [50] 1.69 µM | GI50 [51] 1.67 µM | GI50 [52] 1.98 µM | GI50 [53] 1.95 µM | GI50 [54] 2.13 µM | GI50 [55] 1.73 µM | GI50 [56] 2.42 µM
4.04 µM: TGI [48]
3.1 µM: TGI [40]
4.6 µM: TGI [24]
11.3 µM: TGI [9]
3.69 µM: TGI [20]
3.38 µM: TGI [2]
3.68 µM: TGI [36]
